The subject of test [1] is lipid peroxidase. Put plainly: Activity in inhibiting lipid peroxidase (malondialdehyde quantitation). As to conditions: 10 μM; guinea pig liver microsomes; 20 minutes/37° C. Format: biochemical, Dunkin Hartley Guinea pig. The procedure:
The assay was executed with reference to the method described in Biochem Biophys Res Commun. 1986; 135(3): 1015-1021.
• (a) Source: Dunkin Hartley Guinea pig liver microsomes • (b) Substrate: Polyunsaturated fatty acid • (c) Vehicle: 1% DMSO • (d) Pre-Incubation Time/Temp: 15 minutes/37° C. • (e) Incubation Time/Temp: 20 minutes/37° C. • (f) Incubation Buffer: 0.25 M Potassium Phosphate, pH 7.4, 0.1 mM EDTA • (g) Quantitation Method: Spectrophotometric quantitation of Malondialdehyde
Background: Microsomes from liver hold many membrane-bound enzymes, among them those of drug oxidation.

Test [2] relates to vascular smooth muscle cells of rats. Put plainly: Protecting activity in vascular smooth muscle cells against H2O2 (MTT). It counts as cell-based, rat. As to conditions: compound 10 μM, 30 minutes before H2O2 200 μM, 24 hours, FIG. 3. The procedure:
The vascular smooth muscle cells of rats (2×10^4 cells/mL×1 mL) were quantitatively seeded in 24-well plates, and cultured in Dulbecco's modified Eagle medium (DMEM) with 10% fetal bovine serum (FBS) for 24 hours to achieve cell adhesion. After cell adhesion, the DMEM medium with 10% fetal bovine serum was replaced with a fresh DMEM medium with 0.1% fetal bovine serum to perform cell culture for 48 hours.
Next, the test compounds were added in the cultures (final concentration: 0.1, 1, 10 μM). After 30 minutes, H2O2 (200 μM) was added therein to perform reaction for 24 hours in an incubator. Subsequently, in a light-proof environment, MTT (100 μL) was added into each well to perform reaction at 37° C. for 3 hours. The supernatant liquor was removed and then isopropanol (500 μL) was added, followed by shaking for 10 minutes. After standing for 10 minutes, supernatant liquor (200 μL) was transferred into 96-well plates. Finally, the absorbance values (O.D.) were monitored at 540 nm (OD540) and 630 nm (OD630). Based on the measured absorbance values (OD540-OD630), the effect of these test compounds on cell growth can be evaluated, as shown in FIG. 3.

The nature of test [3]: Free radical scavenging of AAPH (β-phycoerythrin fluorescence decay). Format: biochemical. As to conditions: compound 5×10^−6 M, AAPH 25 mM, β-phycoerythrin 5 nM, FIG. 2. From the text:
In order to evaluate the effect of test compounds in scavenging hydrophilic peroxy radical, the experiment was executed with reference to the method described by Tsuchiya et al. (Methods Enzymol 1992; 213: 460-472). In the experiment, peroxides will react with fluorescent substances and thus inflect observed fluorescence intensity. Thereby, the effect of test compounds in free radical scavenging can be evaluated by measuring the variation of the fluorescence intensity after the addition of test compounds.
First, to a silicate tube was added a phosphate solution (2 ml, pH 7.4), followed by the addition of β-phycoerythrin (5 nM) to increase relative fluorescence intensity. After 5 minutes, 2,2′-azobis(2-amidinopropane)dihydrochloride (25 mM, AAPH) was added therein. Subsequently, through a fluorescent spectrometry (Shimadzu RF-5301PC, Japan), the fluorescence intensity of β-phycoerythrin was measured by excitation at 540 nm and emission at 570 nm. Then, the test compounds (5×10^−6 M) was further added therein to observe the variation of the fluorescence intensity, in which 0.1% DMSO was taken as a control group.

SMILES strings stand for the structures.

In the case of `COc1cc2c(cc1OC)-c1c(O)c(OC)cc3c1C(C2)N(CC(O)COc1ccccc1OC)CC3` (stereo not drawn) [Compound 1], the “Inhibition (%)” value in test [1] is 64%. The “inhibition of H2O2 damage to vascular smooth muscle cells (cell viability, MTT)” value in test [2] is “significantly inhibit H2O2 to damage vascular smooth muscle cells”. Moreover, in test [3], the “protection of β-phycoerythin from peroxy radical AAPH-induced damage (fluorescence decay)” value is recorded as “delay β-phycoerythin fluorescence degradation”.

On to `COc1cc2c(cc1OC)-c1c(O)c(OC)cc3c1C(C2)N(CC(=O)Nc1c(C)cccc1C)CC3` (stereo not drawn) [Compound 2], for which, in test [1], the “Inhibition (%)” value turned out to be 70%. Further, the “inhibition of H2O2 damage to vascular smooth muscle cells (cell viability, MTT)” value in test [2] is “slightly inhibit H2O2 to damage vascular smooth muscle cells”. The “protection of β-phycoerythin from peroxy radical AAPH-induced damage (fluorescence decay)” value in test [3] is reported as “delay β-phycoerythin fluorescence degradation”.

For the origin of these results see patent US8093260B2, “Aporphine derivatives and pharmaceutical use thereof” (Standard Chem. & Pharm. Co., Ltd., priority 2008, dated 2012).
